Assay results: patent US12629355B2, “Drug inhibitor against migration and invasion of cancer cells and methods of treating against metastasis of cancer cells” (HOWARD UNIVERSITY, priority 2019, dated 2026)

Key:
Format in all cases: cell-based
[1] = test system: FAK; assay: Localization of FAK, immunofluorescence (FIG. 13); details: versus DMSO+TGF (5 ng/ml) control
Experimental: FIG. 13 presents in photomicrographs a comparison between an illustrative cancer in which the treatment involved using DMSO+TGF (5 ng/ml) as a control and the illustrative cancer cell in which the in vitro treatment involved using a compound according to a formulae (1), (2) or (3) herein+TGF (5 ng/ml). The block of four photomicrographs on the left is for the control. […] Inability to co-localize would inhibit the downstream modifications of FAK reported as needed for migration.
As to FIGS. 12 and 13, cells were grown to almost 80% confluency and then serum starved for 24 hours. Then treated with the representative compound SD 29-14 for additional 24 h. No TGFbeta1 was used in this assay. After 24 h, cells were prepared for the immunofluorescence imaging essentially with the same procedure as described for FIG. 9. The antibody for the FAK was purchased from GeneTex (Irvine, CA). The secondary was rabbit TRITC. The primary RACK1 antibody coupled with a FITC reporter was purchased from Santa Cruz Biotechnology (Dallas, TX).

[2] = test system: U251 cells; assay: F-actin foci and pY397-FAK organization, immunofluorescence (FIG. 20); details: 96 h, 2 ng/ml TGF-beta1
Description: Cell cytoskeleton plays a significant role during the migration and invasion of cancer cells. Changes in the cytoskeleton accompanies the cell shape changes and which subsequently changes the dynamic actin polymerization and depolymerization process. The attachment of cells to the substrate is integrin dependent and as such it was postulated that the RACK1 dependent migration will also regulate the cytoskeleton changes. In this regard, F-actin foci helps stress fiber based directional filipodia development. To visualize F-actin, we used […] that labels the F-actins. FAK located at focal contact which is actin based anchoring junction that links the cells with the ECM and mostly used by motile cells like the metastatic cancer cells. FAK is known as the key regulator of the F-actin dynamics (Li et al., 2013). (Li S Y, et al., Focal adhesion kinase is a regulator of F-actin dynamics: New insights from studies in the testis, Spermatogenesis, 3 (3): e25385 (2013).
The presence of pY397-FAK can be seen in a linear organized way within the migratory structures but such organized presence of the pY397-FAK was not seen in the presence of the representative compound (SD29-14).
As to FIG. 20, and methods, U251 cells were grown on glass coverslip for 96 h in the presence or absence of SD29-14 containing MEM media with 2 ng/ml TGF-beta1 growth factor. […]

[3] = target: T1, RACK1 protein (Homo sapiens, UniProt P63244); assay: RACK1 protein expression, western blot (FIG. 7); details: MCF-7 cells, 6 days, compound added on day 1 and day 4
T1 construct: endogenous in cells; host or cells: MCF-7
Experimental: As to FIG. 7, MCF-7 cells were washed three times in PBS after growth on MEM media for 6 days. The indicated compounds were added on day 1 and day 4 of the treatment. The cells were lysed in the lysis buffer (Cell Signaling, MA) supplemented with protease inhibitor cocktail (Sigma-Aldrich), Protein Tyrosine phosphatase inhibitors (Santa Cruz Biotechnology, TX), and N-Ethylamaleimide (Sigma-Aldrich) at 25 mM to inhibit de-sumoylation. Twenty five micrograms of proteins were loaded on the BIORAD company's 4-12% precast polyacrylamide gel, transferred to a PVDF membrane and then blocked with 5% non-fat milk (Biorad) for one hour, washed and incubated overnight at 4 C with the RACK1 antibody (1:2500 dilution) purchased from the Santa Cruz Biotechnology. After overnight incubation, the membrane was washed 3× in PBST and then incubated with a horseradish peroxidase-coupled mouse secondary antibody for an hour at room temperature and the bands were detected with enhanced chemiluminescence (Pierce, Rockford, IL, USA), according to standard methods. […] This served as the loading control.

[4] = test system: MCF-7 cells; assay: Filipodia/lamellipodia development of TGF-induced cells on Matrigel, Giemsa stain (FIG. 3, FIG. 5)
Experimental: About 1×10^5 Breast cancer cells (MCF-7) treated with DMSO or SD29-14 for 48 h were resuspended in serum free MEM media and were then plated on 1:6 diluted (with serum free media) matrigel (Basement membrane mimic) in the presence of Transforming Growth Factor (TGFbeta) which is a known inducer of EMT that lead to the migration-(Lamouille and Derynck (2009)), with DMSO or with SD29-14 and the cells were allowed to grow for 20 h on Matrigel. After incubation, media and matrigels were carefully removed and adherent cells were washed three times with 1×PBS; to visualize cells, cells were incubated with Giemsa Stain (Sigma-Aldrich) (1:20 with water) for 10 minutes, washed in water until no blue color rinsed out from the well images under a Zeiss Compound microscope.
Efficacy for inhibiting migration at a lower concentration of a representative compound was also investigated. Cancer cell lines were treated under conditions as used above for FIG. 2 and FIG. 3 but with both 10 μM and 100 μM SD29-14.
The experimental methods, except for the different cell line, are essentially same as stated above as to FIG. 4.

[5] = test system: U251 cells; assay: Actin stress fiber development in lamellipodia (FIG. 6); details: U251 cells grown 72 h, versus DMSO
Description: Actin stress fibers are known to regulate the mesenchymal migrating cells by regulating the myosin-based contractility to achieve directional cell migration (Vallenius 2013). […] As these stress fibers are needed for other cellular functions required for directional movement, a lack of a visible stress fibers should inhibit cells treated with a representative compound (SD 29-14) from acquiring necessary traction generation to migrate. Actin stress fiber development has been reported to be needed to generate traction forces, establishment of the front-to-back polarity axis, retraction of the trailing edge, and extracellular matrix remodeling-development that collectively regulates the directional movement of migrating cell (Vallenius 2013). The cells were grown 72 h at conditions described for the cells imaged in FIG. 4 and were photographed under a Zeiss brand compound microscope at 40× magnification.

`Nn1c(S)nnc1-c1cc(Cl)cc(Cl)c1` [SD 29-14] was tested, and the “localization of FAK” value [1] was “blocks localization of FAK”, the “number and intensity of F-actin foci” value [2] was “reduced the number and intensity of the F-actin foci” and the RACK1 protein expression [3] was “significant of RACK1 proteins”. For the same compound, the “efficacy to inhibit filipodia and lamellipodia development” value ([4]; 10 μM, 72 h grown (FIG. 5)) was “maintained”, the “filipodia and lamellipodia development” value ([4]; 100 uM, TGF-beta on Matrigel, 48 h treated then 20 h on Matrigel) was “the development of both filipodia and lamellipodia was inhibited” and the “actin stress fiber development in lamellipodia” value [5] was “no visible stress fiber like radiating structures were visible”.
